Measurements: the supplement of paper PMC11061612

Columns and labels:
[1] = compound: C=CCn1c(=O)c2cnc(Nc3ccc(N4CCN(C)CC4)cc3)nc2n1-c1cccc(C(C)(C)O)n1 [AZD1775]; details: max 3 µM
How it was run: (§1)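 Viability was measured with CellTiter-Glo 2.0 luminescence after 72 hours of dosing at a final DMSO of typically 0.2%, and scaled between blank-well and DMSO-well means. Beforehand, cancer cell lines sat 24 hours at 37°C and 5% CO2 in 1536-well plates in 7.5 μl DMEM/F12 or RPMI with 10% FBS. A non-linear mixed effects model fitted two-parameter logistic curves to the dose responses. The single-agent IC50 comes from these fits.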

[2] = compound: Cn1cnc2c(F)c(Nc3ccc(Br)cc3Cl)c(C(=O)NOCCO)cc21 [Selumetinib]; details: max 10 µM
How it was run: as §1

[3] = compound: C[C@@H](Nc1cc(F)cc(F)c1)c1cc(C(=O)N(C)C)cc2c(=O)cc(N3CCOCC3)oc12 [AZD8186]; details: max 3 µM
How it was run: as §1

[4] = compound: C[C@@H]1COCCN1C2=NC(=NC(=C2)C3(CC3)[S@](=N)(=O)C)C4=C5C=CNC5=NC=C4 [AZD6738]; details: max 10 µM
How it was run: as §1

[5] = compound: CN(C)CCCOc1ccc(-c2ccc3ncc4c(c3c2)n(C2CCOCC2)c(=O)n4C)cn1 [AZD0156]; details: max 3 µM
How it was run: as §1

[6] = compound: Cc1cc2ncnn2cc1Nc1ncc2c(n1)n(C1CCOCC1)c(=O)n2C [AZD7648]; details: max 10 µM
How it was run: as §1

[7] = compound: CCc1c2c(nc3ccc(O)cc13)-c1cc3c(c(=O)n1C2)COC(=O)[C@]3(O)CC [SN-38]; details: max 0.3 µM
How it was run: as §1

[8] = compound: CC1(C)CCC(CN2CCN(c3ccc(C(=O)NS(=O)(=O)c4ccc(NCC5CCOCC5)c([N+](=O)[O-])c4)c(Oc4cnc5[nH]ccc5c4)c3)CC2)=C(c2ccc(Cl)cc2)C1 [Venetoclax]; details: max 1 µM
How it was run: as §1

[9] = compound: CC1=CN2[C@@H](C1)C=NC3=CC(=C(C=C3C2=O)OC)OCCCCCOC4=C(C=C5C(=C4)N=C[C@@H]6CC(=CN6C5=O)C)OC [SG3199]; details: max 0.001 µM
How it was run: as §1

[10] = compound: C1CN(CCC1(C(=O)N[C@@H](CCO)C2=CC=C(C=C2)Cl)N)C3=NC=NC4=C3C=CN4 [Capivasertib]; details: max 10 µM
How it was run: as §1

[11] = compound: CC1=C(C(=CC=C1)Cl)NC(=O)C2=CN=C(S2)NC3=CC(=NC(=N3)C)N4CCN(CC4)CCO [Dasatinib]; details: max 2 µM
How it was run: as §1

[12] = compound: COc1nnc2ccc(N3CCC(c4ccc(OCCN5CCN(C)C(=O)[C@H]5C)cc4)CC3)nn12 [AZD5153]; details: max 1 µM
How it was run: as §1

[13] = compound: COc1cccc2c1C(=O)c1c(O)c3c(c(O)c1C2=O)C[C@@](O)(C(=O)CO)C[C@@H]3O[C@H]1C[C@H](N)[C@H](O)[C@H](C)O1 [Doxorubicin]; details: max 1 µM
How it was run: as §1

[14] = compound: Cc1c2c(nn1C)CSCc1cc(n(C)n1)CSc1cc(c3ccccc3c1)OCCCc1c(C(=O)O)n(C)c3c-2c(Cl)ccc13 [AZD5991]; details: max 1 µM
How it was run: as §1

[15] = compound: CC(=O)Nc1cccc(-n2c(=O)n(C3CC3)c(=O)c3c(Nc4ccc(I)cc4F)n(C)c(=O)c(C)c32)c1 [Trametinib]; details: max 1 µM
How it was run: as §1

[16] = compound: COc1cc2ncnc(Nc3ccc(F)c(Cl)c3)c2cc1OCCCN1CCOCC1 [Gefitinib]; details: max 10 µM
How it was run: as §1

[17] = compound: COc1cc(Nc2ncc3c(n2)-c2ccc(Cl)cc2C(c2c(F)cccc2OC)=NC3)ccc1C(=O)O [Alisertib]; details: max 10 µM
How it was run: as §1

[18] = compound: CC(=O)c1c(C)c2cnc(Nc3ccc(N4CCNCC4)cn3)nc2n(C2CCCC2)c1=O [Palbociclib]; details: max 10 µM
How it was run: as §1

[19] = compound: CN(CC[C@H](CSC1=CC=CC=C1)NC2=C(C=C(C=C2)S(=O)(=O)NC(=O)C3=CC=C(C=C3)N4CCC(CC4)[C@H](C5=CC=CC=C5C6=CC=C(C=C6)Cl)O)S(=O)(=O)C(F)(F)F)CCO [AZD4320]; details: max 1 µM
How it was run: as §1

[20] = compound: CCN(CCO)CCCOc1ccc2c(Nc3cc(CC(=O)Nc4cccc(F)c4)[nH]n3)ncnc2c1 [AZD2811]; details: max 1 µM
How it was run: as §1

[21] = compound: C[C@@H](c1ccc2nccn2c1)n1nnc2ncc(-c3cnn(C)c3)nc21 [Savolitinib]; details: max 1 µM
How it was run: as §1

[22] = compound: COc1cccc(OCCCN)c1-c1cc(Nc2cnc(C#N)cn2)n[nH]1 [Prexasertib]; details: max 1 µM
How it was run: as §1

[23] = compound: O=C(c1cc(Cc2n[nH]c(=O)c3ccccc23)ccc1F)N1CCN(C(=O)C2CC2)CC1 [Olaparib]; details: max 10 µM
How it was run: as §1

[24] = compound: Cc1nc(-c2cn3c(n2)-c2ccc(-c4cnn(C(C)(C)C(N)=O)c4)cc2OCC3)n(C(C)C)n1 [Taselisib]; details: max 10 µM
How it was run: as §1

[25] = compound: CS(=O)(=O)CCNCc1ccc(-c2ccc3ncnc(Nc4ccc(OCc5cccc(F)c5)c(Cl)c4)c3c2)o1 [Lapatinib]; details: max 10 µM
How it was run: as §1

[26] = compound: CC(C)n1c(=O)n(C)c2cnc3cc(F)c(-c4ccc(OCCCN5CCCCC5)nc4)cc3c21 [AZD1390]; details: max 0.3 µM
How it was run: as §1

[27] = compound: C[C@@H](Oc1cc(-c2cnn(C3CCNCC3)c2)cnc1N)c1c(Cl)ccc(F)c1Cl [Crizotinib]; details: max 10 µM
How it was run: as §1

| Cell Line | IC50, cell viability 72 h [1] | IC50, cell viability 72 h [2] | IC50, cell viability 72 h [3] | IC50, cell viability 72 h [4] | IC50, cell viability 72 h [5] | IC50, cell viability 72 h [6] | IC50, cell viability 72 h [7] | IC50, cell viability 72 h [8] | IC50, cell viability 72 h [9] | IC50, cell viability 72 h [10] | IC50, cell viability 72 h [11] | IC50, cell viability 72 h [12] | IC50, cell viability 72 h [13] | IC50, cell viability 72 h [14] | IC50, cell viability 72 h [15] | IC50, cell viability 72 h [16] | IC50, cell viability 72 h [17] | IC50, cell viability 72 h [18] | IC50, cell viability 72 h [19] | IC50, cell viability 72 h [20] | IC50, cell viability 72 h [21] | IC50, cell viability 72 h [22] | IC50, cell viability 72 h [23] | IC50, cell viability 72 h [24] | IC50, cell viability 72 h [25] | IC50, cell viability 72 h [26] | IC50, cell viability 72 h [27] |
| --- | --- | --- | --- | --- | --- | --- | --- | --- | --- | --- | --- | --- | --- | --- | --- | --- | --- | --- | --- | --- | --- | --- | --- | --- | --- | --- | --- |
| 5637 (Bladder Carcinoma) | 0.385 µM | > 10 µM | > 3 µM | 6.46 µM | > 3 µM | > 10 µM | 0.0379 µM | > 1 µM | > 0.001 µM | > 10 µM | 0.26 µM | 0.9 µM | > 1 µM | > 1 µM | > 1 µM | > 10 µM | 1.01 µM | > 10 µM | > 1 µM | 0.251 µM | > 1 µM | 0.0532 µM | > 10 µM | 8.9 µM | 7.56 µM | > 0.3 µM | > 10 µM |
| A204 (Rhabdomyosarcoma) | > 3 µM | > 10 µM | > 3 µM | > 10 µM | > 3 µM | > 10 µM | 0.132 µM | > 1 µM | > 0.001 µM | > 10 µM | 1.39 µM | > 1 µM | 0.528 µM | > 1 µM | > 1 µM | > 10 µM | > 10 µM | > 10 µM | > 1 µM | > 1 µM | > 1 µM | 0.362 µM | > 10 µM | 4.32 µM | > 10 µM | > 0.3 µM | > 10 µM |
| A253 (Head and Neck Carcinoma) | 1.13 µM | > 10 µM | > 3 µM | 4.57 µM | > 3 µM | > 10 µM | 0.0187 µM | > 1 µM | > 0.001 µM | 4.08 µM | > 2 µM | > 1 µM | 0.177 µM | 0.447 µM | 0.746 µM | > 10 µM | > 10 µM | > 10 µM | > 1 µM | > 1 µM | > 1 µM | 0.11 µM | > 10 µM | 6.73 µM | > 10 µM | > 0.3 µM | > 10 µM |
| AU565 (Breast Carcinoma) | 0.435 µM | > 10 µM | > 3 µM | > 10 µM | > 3 µM | > 10 µM | 0.0145 µM | > 1 µM | > 0.001 µM | 7.95 µM | > 2 µM | > 1 µM | 0.634 µM | 0.0683 µM | > 1 µM | 2.74 µM | 9.28 µM | > 10 µM | > 1 µM | > 1 µM | > 1 µM | 0.133 µM | > 10 µM | 3.15 µM | 0.358 µM | > 0.3 µM | > 10 µM |
| CA46 (Burkitt's Lymphoma) | 0.579 µM | > 10 µM | > 3 µM | > 10 µM | > 3 µM | > 10 µM | 0.135 µM | > 1 µM | > 0.001 µM | > 10 µM | > 2 µM | 0.232 µM | > 1 µM | > 1 µM | > 1 µM | > 10 µM | > 10 µM | > 10 µM | > 1 µM | > 1 µM | > 1 µM | 0.142 µM | > 10 µM | > 10 µM | > 10 µM | > 0.3 µM | > 10 µM |
| CAL-27 (Oral Cavity Carcinoma) | 1.85 µM | 1.89 µM | > 3 µM | > 10 µM | > 3 µM | > 10 µM | 0.0136 µM | > 1 µM | > 0.001 µM | > 10 µM | 0.431 µM | 0.426 µM | 0.927 µM | 0.413 µM | 0.129 µM | 0.839 µM | 0.443 µM | > 10 µM | > 1 µM | 0.608 µM | > 1 µM | 0.894 µM | > 10 µM | 0.854 µM | 0.933 µM | > 0.3 µM | > 10 µM |
| CESS (Acute Myeloid Leukemia) | 0.353 µM | > 10 µM | 2.14 µM | 2.08 µM | > 3 µM | > 10 µM | 0.00615 µM | > 1 µM | > 0.001 µM | 4.12 µM | 1.4 µM | 0.297 µM | 0.237 µM | > 1 µM | > 1 µM | > 10 µM | 0.107 µM | 8.03 µM | > 1 µM | > 1 µM | > 1 µM | 0.0122 µM | > 10 µM | 7.4 µM | > 10 µM | > 0.3 µM | 4.01 µM |
| COLO-792 (Melanoma) | 2.29 µM | 5.94 µM | > 3 µM | > 10 µM | > 3 µM | > 10 µM | > 0.3 µM | > 1 µM | > 0.001 µM | > 10 µM | > 2 µM | 0.512 µM | > 1 µM | 0.238 µM | 0.11 µM | > 10 µM | > 10 µM | > 10 µM | 0.788 µM | > 1 µM | > 1 µM | > 1 µM | > 10 µM | 1.69 µM | > 10 µM | > 0.3 µM | 5.38 µM |
